Reference: US20230287510A1, “COMPOSITIONS, PANELS, AND METHODS FOR CHARACTERIZING CHRONIC LYMPHOCYTIC LEUKEMIA” (The Broad Institute, Inc., priority 2020, published 2023)

System: chronic lymphocytic leukemia (CLL) samples classified by expression subtype (Ec-i, EC-m1, EC-m2, EC-m3, EC-m4, EC-o, EC-u1, EC-u2)
Experiment: Ex-vivo drug sensitivity (percent viability) of CLL samples compared between expression subtypes (ECs); as to Mean viability in the EC: test concentration or dose not given here; as to Mean viability in the other ECs: test concentration or dose not given here
Type: cell-based
Text: An analysis was completed to determine whether the expression clusters (ECs) can be used to predict the resistance and sensitivity of different chronic lymphocytic leukemias to various drugs. […] The expression subtypes were then used with the drug sensitivity data to compare the percent […] of samples in each expression cluster to the percent viability of samples in all other expression clusters.

Compound | Mean viability in the other ECs (all ECs other than EC-m1) | Mean viability in the other ECs (all ECs other than EC-u1) | Drug response associated with the EC (expression cluster EC-m1) | Mean viability in the EC (expression cluster EC-m1) | Drug response associated with the EC (expression cluster EC-u1) | Mean viability in the EC (expression cluster EC-u1) | also measured
NC1(c2ccc(-c3nc4ccn5c(=O)[nH]nc5c4cc3-c3ccccc3)cc2)CCC1 [MK-2206] | 1.00 | 1.02 | Resistant | 1.07 | Sensitive | 0.98 | Mean viability in the other ECs (all ECs other than EC-m4): 1.00; Drug response associated with the EC (expression cluster EC-m4): Resistant; Mean viability in the EC (expression cluster EC-m4): 1.04
CC1(C)CCC(CN2CCN(c3ccc(C(=O)NS(=O)(=O)c4ccc(NCC5CCOCC5)c([N+](=O)[O-])c4)c(Oc4cnc5[nH]ccc5c4)c3)CC2)=C(c2ccc(Cl)cc2)C1 [venetoclax] |  | 0.45 |  |  | Resistant | 0.54 | 
CN1CCC(CNc2ccc3ncc(-c4cccc(OC(F)(F)F)c4)n3n2)CC1 [SGI-1776] | 1.03 | 1.04 | Resistant | 1.09 | Sensitive | 1.01 | 
CC[C@H]1CN2CCc3cc(OC)c(OC)cc3[C@@H]2C[C@@H]1C[C@H]1NCCc2cc(O)c(OC)cc21 [cephaeline] |  |  |  |  |  |  | Mean viability in the other ECs (all ECs other than EC-u2): 0.82; Mean viability in the EC (expression cluster EC-u2): 0.72
fludarabine |  |  |  |  |  |  | Mean viability in the other ECs (all ECs other than EC-m3): 0.93; Drug response associated with the EC (expression cluster EC-m3): Sensitive; Mean viability in the EC (expression cluster EC-m3): 0.82
